Laboratory results from patent US20230167073A1 (Teijin Pharma Limited, priority 2020, published 2023).

biological target: T1, Human TRPC6 (Homo sapiens, UniProt Q9Y210); test: Evaluation of TRPC6 channel inhibitory activity (1), FLIPR Calcium 5 Assay Kit, OAG stimulation (Compound Nos. 1-1293); type: cell-based; details: Human TRPC6 stably-expressing cells, OAG 30 μM, FLIPR Calcium 5 Assay Kit; read-out: Inhibitory activity (pIC50 class) (converted)
T1 construct: expressed in transfected cells
T1 sequence (Q9Y210 1-931): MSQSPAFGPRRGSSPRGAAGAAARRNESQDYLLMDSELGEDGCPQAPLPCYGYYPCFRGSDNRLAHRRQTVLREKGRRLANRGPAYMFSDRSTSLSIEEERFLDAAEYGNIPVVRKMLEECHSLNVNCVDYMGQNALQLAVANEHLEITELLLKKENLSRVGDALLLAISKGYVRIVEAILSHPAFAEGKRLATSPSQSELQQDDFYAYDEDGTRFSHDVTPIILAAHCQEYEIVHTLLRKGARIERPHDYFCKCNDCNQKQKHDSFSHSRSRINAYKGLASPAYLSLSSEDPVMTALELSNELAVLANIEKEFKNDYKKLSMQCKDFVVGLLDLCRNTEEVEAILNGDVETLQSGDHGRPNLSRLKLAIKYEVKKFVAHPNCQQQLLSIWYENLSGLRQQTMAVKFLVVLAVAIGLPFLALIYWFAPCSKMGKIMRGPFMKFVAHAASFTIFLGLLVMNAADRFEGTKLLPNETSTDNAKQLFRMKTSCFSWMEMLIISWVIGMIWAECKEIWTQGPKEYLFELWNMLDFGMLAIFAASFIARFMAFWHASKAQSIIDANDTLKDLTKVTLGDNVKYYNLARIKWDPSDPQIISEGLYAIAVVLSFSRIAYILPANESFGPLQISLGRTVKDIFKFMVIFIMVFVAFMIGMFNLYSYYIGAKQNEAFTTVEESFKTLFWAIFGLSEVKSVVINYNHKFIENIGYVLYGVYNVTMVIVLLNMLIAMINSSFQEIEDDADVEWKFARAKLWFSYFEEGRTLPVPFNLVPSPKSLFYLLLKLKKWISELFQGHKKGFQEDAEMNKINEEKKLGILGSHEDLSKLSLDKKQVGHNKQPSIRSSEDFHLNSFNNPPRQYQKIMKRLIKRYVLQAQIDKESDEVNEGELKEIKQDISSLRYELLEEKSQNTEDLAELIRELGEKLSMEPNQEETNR
Outline: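 Calcium influx read by FLIPR fluorescence in cells stably expressing human TRPC6, dye-loaded 30 min. Compounds preincubated 20 min, then OAG stimulation at 30 μM final. Inhibition fitted by four-parameter logistic regression to give pIC50, reported as +/++/+++ categories.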

`Cc1nn(CC(F)(F)F)cc1Oc1cc(C#N)ccc1-c1ncc(CCN)cn1` [compound 834, 4-[5-(2-aminoethyl)pyrimidin-2-yl]-3-[3-methyl-1-(2,2,2-trifluoroethyl)pyrazol-4-yl]oxybenzonitrile] and `Cc1nn(CC(F)(F)F)cc1Oc1cc(C#N)ccc1-c1ncc(CN)cn1` [compound 835, 4-[5-(aminomethyl)pyrimidin-2-yl]-3-[3-methyl-1-(2,2,2-trifluoroethyl)pyrazol-4-yl]oxybenzonitrile] cannot be ordered by IC50: < 10 nM for the first, < 10 nM for the second.

`Cc1c(Oc2cc(C#N)ccc2-c2ncc(CCN)cn2)cnn1CC(F)(F)F` [compound 836, 4-[5-(2-aminoethyl)pyrimidin-2-yl]-3-[5-methyl-1-(2,2,2-trifluoroethyl)pyrazol-4-yl]oxybenzonitrile] and `Cc1c(Oc2cc(C#N)ccc2-c2ncc(CN)cn2)cnn1CC(F)(F)F` [compound 837, 4-[5-(aminomethyl)pyrimidin-2-yl]-3-[5-methyl-1-(2,2,2-trifluoroethyl)pyrazol-4-yl]oxybenzonitrile] fall in the same range of IC50: 10 to 1000 nM for the first, 10 to 1000 nM for the second.

First: COCCCCN(C)c1cc(Oc2cc(C#N)ccc2-c2ncc(CCN)cn2)n(C)n1 [compound 838, 4-[5-(2-aminoethyl)pyrimidin-2-yl]-3-[5-[4-methoxybutyl(methyl)amino]-2-methylpyrazol-3-yl]oxybenzonitrile]
Second: CC(C)OCCN(C)c1cc(Oc2cc(C#N)ccc2-c2ncc(CCN)cn2)n(C)n1 [compound 863, 4-[5-(2-aminoethyl)pyrimidin-2-yl]-3-[2-methyl-5-[methyl(2-propan-2-yloxyethyl)amino]pyrazol-3-yl]oxybenzonitrile]
The IC50 of the first is lower: 10 to 1000 nM for the first, > 1000 nM for the second.

`CN(C)C(=O)CNC(C)(C)Cc1ccc(-c2ccc(C#N)cc2Oc2cc(-c3ccccn3)nn2C)nc1` [compound 839, 2-[[1-[6-[4-cyano-2-(2-methyl-5-pyridin-2-ylpyrazol-3-yl)oxyphenyl]pyridin-3-yl]-2-methylpropan-2-yl]amino]-N,N-dimethylacetamide] and `Cc1cc(Oc2cc(C#N)ccc2-c2ccc(CC(C)(C)NCC(=O)N(C)C)cn2)cc(N2CCOCC2)n1` [compound 840, 2-[[1-[6-[4-cyano-2-(2-methyl-6-morpholin-4-ylpyridin-4-yl)oxyphenyl]pyridin-3-yl]-2-methylpropan-2-yl]amino]-N,N-dimethylacetamide] cannot be ordered by IC50: > 1000 nM for the first, > 1000 nM for the second.

First: Cc1cc(Oc2cc(C#N)ccc2-c2ncc(CNCC(N)=O)cn2)cc(-c2ccccn2)n1 [compound 841, 2-[[2-[4-cyano-2-(2-methyl-6-pyridin-2-ylpyridin-4-yl)oxyphenyl]pyrimidin-5-yl]methylamino]acetamide]
Second: Cc1nc(Oc2cc(C#N)ccc2-c2ncc(CCN)cn2)cc(N2CCC2=O)n1 [compound 855, 4-[5-(2-aminoethyl)pyrimidin-2-yl]-3-[2-methyl-6-(2-oxoazetidin-1-yl)pyrimidin-4-yl]oxybenzonitrile]
The IC50 of the first is higher: > 1000 nM for the first, 10 to 1000 nM for the second.

`CCN(c1cc(Oc2cc(C#N)ccc2-c2ncc(CCN)cn2)n(C)n1)C(C)C` [compound 842, 4-[5-(2-aminoethyl)pyrimidin-2-yl]-3-[5-[ethyl(propan-2-yl)amino]-2-methylpyrazol-3-yl]oxybenzonitrile] and `Cc1nc(Oc2cc(C#N)ccc2-c2ncc(CCN)cn2)cc(N(C)C(C)C)n1` [compound 857, 4-[5-(2-aminoethyl)pyrimidin-2-yl]-3-[2-methyl-6-[methyl(propan-2-yl)amino]pyrimidin-4-yl]oxybenzonitrile] cannot be ordered by IC50: < 10 nM for the first, < 10 nM for the second.

First: COCCOc1cc(Oc2cc(C#N)ccc2-c2ncc(CN)cn2)nc(C)n1 [compound 843, 4-[5-(aminomethyl)pyrimidin-2-yl]-3-[6-(2-methoxyethoxy)-2-methylpyrimidin-4-yl]oxybenzonitrile]
Second: Cc1nc(OCC(C)C)cc(Oc2cc(C#N)ccc2-c2ncc(CN)cn2)n1 [compound 846, 4-[5-(aminomethyl)pyrimidin-2-yl]-3-[2-methyl-6-(2-methylpropoxy)pyrimidin-4-yl]oxybenzonitrile]
The IC50 of the first is higher: > 1000 nM for the first, 10 to 1000 nM for the second.

`Cc1nc(Oc2cc(C#N)ccc2-c2ncc(CN)cn2)cc(O[C@@H]2CCOC2)n1` [compound 844, 4-[5-(aminomethyl)pyrimidin-2-yl]-3-[2-methyl-6-[(3R)-oxolan-3-yl]oxypyrimidin-4-yl]oxybenzonitrile] and `Cc1nc(Oc2cc(C#N)ccc2-c2ncc(CN)cn2)cc(O[C@H]2CCOC2)n1` [compound 845, 4-[5-(aminomethyl)pyrimidin-2-yl]-3-[2-methyl-6-[(3S)-oxolan-3-yl]oxypyrimidin-4-yl]oxybenzonitrile] cannot be ordered by IC50: > 1000 nM for the first, > 1000 nM for the second.

Going from `Cc1nc(OCC2CC2(F)F)cc(Oc2cc(C#N)ccc2-c2ncc(CN)cn2)n1` (stereo not drawn) [compound 847, 4-[5-(aminomethyl)pyrimidin-2-yl]-3-[6-[(2,2-difluorocyclopropyl)methoxy]-2-methylpyrimidin-4-yl]oxybenzonitrile] to `Cc1nc(OCC(C)C)cc(Oc2cc(C#N)ccc2-c2ncc(CCN)cn2)n1` [compound 849, 4-[5-(2-aminoethyl)pyrimidin-2-yl]-3-[2-methyl-6-(2-methylpropoxy)pyrimidin-4-yl]oxybenzonitrile], the IC50 falls from > 1000 nM to < 10 nM.

`Cc1nc(Oc2cc(C#N)ccc2-c2ncc(CCN)cn2)cc(OC(C)C)n1` [compound 848, 4-[5-(2-aminoethyl)pyrimidin-2-yl]-3-(2-methyl-6-propan-2-yloxypyrimidin-4-yl)oxybenzonitrile] and `CCN(C)c1cc(Oc2cc(C#N)ccc2-c2ncc(CCN)cn2)nc(C)n1` [compound 854, 4-[5-(2-aminoethyl)pyrimidin-2-yl]-3-[6-[ethyl(methyl)amino]-2-methylpyrimidin-4-yl]oxybenzonitrile] cannot be ordered by IC50: < 10 nM for the first, < 10 nM for the second.

Going from `Cc1nc(Oc2cc(C#N)ccc2-c2ncc(CN)cn2)cc(N2C=NCCC2)n1` [compound 850, 4-[5-(aminomethyl)pyrimidin-2-yl]-3-[6-(5,6-dihydro-4H-pyrimidin-1-yl)-2-methylpyrimidin-4-yl]oxybenzonitrile] to `Cc1nc(Oc2cc(C#N)ccc2-c2ncc(CN)cn2)cc(N2CCCC2=O)n1` [compound 851, 4-[5-(aminomethyl)pyrimidin-2-yl]-3-[2-methyl-6-(2-oxopyrrolidin-1-yl)pyrimidin-4-yl]oxybenzonitrile], the IC50 rises from < 10 nM to > 1000 nM.

Going from `Cc1nc(Oc2cc(C#N)ccc2-c2ncc(CN)cn2)cc(N(C)C2COC2)n1` [compound 852, 4-[5-(aminomethyl)pyrimidin-2-yl]-3-[2-methyl-6-[methyl(oxetan-3-yl)amino]pyrimidin-4-yl]oxybenzonitrile] to `Cc1nc(Oc2cc(C#N)ccc2-c2ncc(CCN)cn2)cc(N(C)CC2CC2)n1` [compound 861, 4-[5-(2-aminoethyl)pyrimidin-2-yl]-3-[6-[cyclopropylmethyl(methyl)amino]-2-methylpyrimidin-4-yl]oxybenzonitrile], the IC50 falls from > 1000 nM to < 10 nM.

`Cc1nc(Oc2cc(C#N)ccc2-c2ncc(CCN)cn2)cc(N2CCC2)n1` [compound 853, 4-[5-(2-aminoethyl)pyrimidin-2-yl]-3-[6-(azetidin-1-yl)-2-methylpyrimidin-4-yl]oxybenzonitrile] and `Cc1nc(Oc2cc(C#N)ccc2-c2ncc(CCN)cn2)cc(N2CC(F)C2)n1` [compound 858, 4-[5-(2-aminoethyl)pyrimidin-2-yl]-3-[6-(3-fluoroazetidin-1-yl)-2-methylpyrimidin-4-yl]oxybenzonitrile] fall in the same range of IC50: 10 to 1000 nM for the first, 10 to 1000 nM for the second.

First: CCN(CC)c1cc(Oc2cc(C#N)ccc2-c2ncc(CCN)cn2)nc(C)n1 [compound 856, 4-[5-(2-aminoethyl)pyrimidin-2-yl]-3-[6-(diethylamino)-2-methylpyrimidin-4-yl]oxybenzonitrile]
Second: COCCN(C)c1cc(Oc2cc(C#N)ccc2-c2ncc(CCN)cn2)nc(C)n1 [compound 862, 4-[5-(2-aminoethyl)pyrimidin-2-yl]-3-[6-[2-methoxyethyl(methyl)amino]-2-methylpyrimidin-4-yl]oxybenzonitrile]
The IC50 of the first is lower: < 10 nM for the first, 10 to 1000 nM for the second.

`Cc1nc(Oc2cc(C#N)ccc2-c2ncc(CCN)cn2)cc(N2CCC[C@H]2C)n1` [compound 859, 4-[5-(2-aminoethyl)pyrimidin-2-yl]-3-[2-methyl-6-[(2R)-2-methylpyrrolidin-1-yl]pyrimidin-4-yl]oxybenzonitrile] and `Cc1nc(Oc2cc(C#N)ccc2-c2ncc(CCN)cn2)cc(N2CCC[C@@H]2C)n1` [compound 860, 4-[5-(2-aminoethyl)pyrimidin-2-yl]-3-[2-methyl-6-[(2S)-2-methylpyrrolidin-1-yl]pyrimidin-4-yl]oxybenzonitrile] cannot be ordered by IC50: < 10 nM for the first, < 10 nM for the second.
